A short description of data set [1]: Pharmacokinetics after single bolus followed by 2-h infusion.
Data set [2] is described as follows: Pharmacokinetics after single IV bolus. The following applies: for Co: back-extrapolated; for Plasma concentration range during anesthetic recovery: after IV bolus, approximate.
The subject of data set [3] is dogs. The class given is in vivo, beagle dog.
The subject of data set [4] is dogs. The data set is described as follows: Observation of myoclonus during and after hypnotic infusion. As to conditions: for Persistence of myoclonus in the postinfusion period: after 2-h infusions; for Incidence of myoclonus during infusion: for all studies.
In data set [5] the test system is adrenocortical responsiveness to ACTH1-24 stimulation. Put plainly: Adrenocortical recovery after hypnotic infusion. As to conditions: for Plasma cortisol concentrations compared to vehicle group over time: after 2-h infusion, ACTH1-24 stimulated; for Shared Hill coefficient of in vivo adrenocortical concentration-response curves: both data sets fit to a single Hill coefficient.

Data set [6] deals with dogs. Put plainly: Loss of righting reflexes. The class given is in vivo, beagle dog.
Data set [7] concerns dogs. Put plainly: Pharmacodynamic modeling: plasma concentration vs anesthesia score. The class given is in vivo, beagle dog. The following applies: bolus, n = 3 dogs; for γ (slope parameter): sigmoid Emax fit; for EC anesthesia score 3: venous plasma concentration when anesthesia score is 3.
Data set [8] concerns dogs. Put plainly: Pilot experiments of midazolam dosing in dogs. The class given is in vivo, beagle dog. The following applies: 0.1 - 0.2 mg/kg intravenous bolus per dose.
The test system of data set [9] is rats. The following applies: cited from earlier work.
A short description of data set [10]: Stability testing of frozen formulated drug. The class given is physicochemical. As to conditions: 8 mg/ml in 20% sulfobutylether-β-cyclodextrin pH 7.4, stored frozen at -20°C.
Data set [11] has as its system rats. As to conditions: cited from earlier work. This is another data set of the same source.
Where [12] appears, read: metabolite, bolus followed by 2-h infusion of parent, n = 4 dogs.
The mark [13] stands for this setting: metabolite after IV bolus of parent, n = 3 dogs.
Setting [14] is: CPMM vs etomidate 2-h infusion study, n = 4 dogs per group.
Setting [15] is: IV bolus (CPMM 4 mg/kg, etomidate 2 mg/kg), n = 3 dogs.
Setting [16] is: parent drug, IV bolus, n = 3 dogs, time zero to infinity.
The mark [17] stands for this setting: CPMM vs propofol 2-h infusion study, n = 4 dogs/group.
Setting [18] is: bolus followed by 2-h infusion, dogs.
[19] abbreviates: parent drug, IV bolus, n = 3 dogs.

The values below come from PMC4237671 (Anesthesiology, 2014).

Entries after “also recorded” stand apart in the source; their conditions may differ. Where two headings read alike, the source gives them in different places.

With `CC(c1ccccc1)n1cncc1C(=O)O` (centres unmarked) [Etomidate Metabolite], in data set [1] (setting [12]), the Cmax is reported as 1,680 ±253 ng/ml and the t1/2 came out at 69.3 ± 23.4 min. Moreover, the “Plasma concentration in final blood samples 120 min after administration” value in data set [2] (after etomidate 2 mg/kg bolus, dogs) is 708 ± 75 ng/mL. In [2] (setting [13]), the AUC is recorded as 236,000 ± 18,400 min·ng ml^−1, the Cmax is listed as 2,370 ± 347 ng·ml^−1, the t1/2 was 61.4 ± 9.13 min and the tmax was 18.3 ± 18.9 min.
As to `CCOC(=O)c1cncn1[C@H](C)c1ccccc1` [Etomidate, reference compound], the “Time after bolus administration of anesthetic recovery” value in the data set with dogs [3] (CPMM 4 mg/kg or etomidate 2 mg/kg bolus, see fig. 3B) was in the range of 9.0 to 13.8 min. For the same molecule, in the data set with dogs [4] (setting [14]), the “Dogs with myoclonus during infusion” value stood at 2 dogs. Besides, the “Persistence of myoclonus in the postinfusion period” value with dogs [4] (dogs) is given as “up to approximately an hour”. Moreover, in the data set on dogs [4], the “Incidence of myoclonus during infusion” value is 2/4. The “Plasma cortisol concentrations compared to vehicle group over time” value in [5] (dogs) is listed as “remained significantly lower than those in the vehicle group throughout the duration of the study (>300 min)”. Also, the “Shared Hill coefficient of in vivo adrenocortical concentration-response curves” value in [5] was -2.0. Besides, in the data set on dogs [6] (0.5 mg/kg IV bolus, n = 3 dogs), the “Duration of LoRR” value amounted to 2.7 ± 0.8 min. The “Duration of LoRR” value with dogs [6] (1.9 mg/kg IV bolus, n = 3 dogs) stood at 17 ± 5 min. In the data set with dogs [6] (dogs), the “Relative hypnotic potency CPMM vs etomidate” value is on record as “approximately twice as potent as CPMM”. In the data set with dogs [6] (dogs, IV bolus), the “Bolus doses that induced LoRR in all dogs” value lay within 0.5 to 1.9 mg/kg, the “Slope of duration of LoRR vs logarithm of dose” value came out at 24 and the “X-intercept of duration of LoRR vs logarithm of dose” value was 0.37 mg/kg. This molecule also gave a Cmax in [1] (beagle, dog, in vivo) of 2050 ng/mL. In the data set with dogs [7], the “γ (slope parameter)” value is on record as 1.7 0.9 – 2.4 and the “EC anesthesia score 3” value is given as 5,952 4,392 – 8,066 ng/ml. For the same molecule, in the data set on dogs [7] (venous plasma concentration when anesthesia score is 1), the “EC anesthesia score 1” value was 1,607 1,026 – 2,517 ng/ml. Further, the Co in data set [2] (setting [15]) is reported as 10,700 ± 1,440 ng/ml. For the same molecule, in data set [2] (IV bolus, dogs), the “Decrease of plasma concentration from initial to final blood sample (2 h)” value is 1.5 orders of magnitude and the “Plasma concentration at 10 min as percentage of initial blood sample” value turned out to be 25%. Also, the “Plasma concentration range during anesthetic recovery” value in data set [2] (dogs) is reported as “approximately 1,000 ng/ml”. In data set [2] (beagle, dog, in vivo, 2 mg/kg), this molecule returned a concentration at 30 s of 9080 ng/mL and a concentration at 10 min of 2230 ng/mL. For the same molecule, in data set [2] (beagle, dog, in vivo, iv, 2 mg/kg, AUC, parent drug, IV bolus, n = 3 dogs, time zero to infinity), the AUC is 1930 ng·h/mL. The area under the curve (AUC) in data set [2] (setting [16]) is 139,000 ± 26,300 min-ng ml^−1.
For the molecule `Cc1ncc2n1-c1ccc(Cl)cc1C(c1ccccc1F)=NC2` [midazolam], in the data set with dogs [4] (0.1 - 0.2 mg/kg intravenous bolus per dose during 2-h hypnotic infusions, dogs), the Effect on myoclonus entry is given as “effectively reduced the myoclonus”. In addition, the Sedative effect entry in the data set on dogs [8] is on record as “no discernable sedative effect”.
Turning to `CC(C)c1cccc(C(C)C)c1O` [propofol], in the data set with dogs [4] (setting [17]), the “Dogs with myoclonus during infusion” value is “two dogs had myoclonus”.
As to “cyclopropyl-methoxycarbonyl metomidate [CPMM]”, in the data set on dogs [3] (bolus followed by 2-h infusion), the “Time to recover from anesthesia score 3 to score 0” value was 8 ± 3 min and the “Time to recover from anesthesia score 3 to score 2” value was determined as 4.4 ± 1.3 min. For the same molecule, in the data set on dogs [3] (bolus vs bolus plus 2-h infusion), the “Dependence of hypnotic recovery times on infusion duration” value is reported as “independent of infusion duration”. In addition, in the data set with dogs [3] (single bolus CPMM 4 mg/kg vs etomidate 2 mg/kg), the “Recovery times from anesthesia score 3 to all lower scores compared to etomidate” value is listed as “significantly shorter”. In the data set with dogs [3] (single bolus only (4 mg/kg)), the “Time to recover from anesthesia score 3 to score 0” value amounted to 11 ± 3 min, the “Time to recover from anesthesia score 3 to score 1” value was found to be 5.5 ± 0.7 min and the “Time to recover from anesthesia score 3 to score 2” value worked out at 4.3 ± 1.2 min. For the same molecule, in the data set on dogs [4] (setting [14]), the “Dogs with myoclonus during infusion” value is on record as 4 dogs. Besides, the “Dogs with myoclonus during infusion” value with dogs [4] (setting [17]) was “all four dogs had myoclonus”. The “Persistence of myoclonus in the postinfusion period” value in the data set on dogs [4] (dogs) is reported as “ceased within several minutes”. The “Incidence of myoclonus during infusion” value with dogs [4] was 8/8. The “Hypnotic recovery time following 2-h continuous infusion” value in the data set with rats [9] was 4.2 min. The “Stability of formulated drug” value in data set [10] is on record as “no significant degradation over time”. In addition, the “Adrenal response to the second ACTH challenge compared to vehicle control” value in data set [5] (180 min postinfusion, n = 4 dogs/group) is “normal adrenal response”. Besides, the “Plasma cortisol concentrations compared to vehicle group over time” value in data set [5] (dogs) was “not significantly different from controls for all time points longer than 120 min after infusion termination”. Also, the “Half-time of adrenocortical recovery (normalized plasma cortisol)” value in data set [5] (after bolus plus 2-h infusion, n = 4 dogs) amounted to 215 min. In addition, the “Shared Hill coefficient of in vivo adrenocortical concentration-response curves” value in data set [5] is -2.0. In [5] (equivalent postinfusion time points after 2-h infusion, dogs), the “ACTH-stimulated plasma cortisol concentration, fold higher vs etomidate group” value is on record as 4- to 27 fold. Besides, the “In vivo IC50 for suppression of adrenocortical responsiveness to ACTH1-24” value in [5] (plasma hypnotic concentration, dogs, Hill fit, estimated) is 0.027 µg/mL. In the data set with dogs [6] (1 mg/kg IV bolus, n = 3 dogs), the “Duration of LoRR” value is listed as 1.8 ± 0.6 min. Besides, the “Duration of LoRR” value with dogs [6] (12 mg/kg IV bolus, n = 4 dogs) is on record as 10.9 ± 0.7 min. In addition, the “Relative hypnotic potency CPMM vs etomidate” value in the data set with dogs [6] (dogs) was “half as potent; also recorded: approximately half that of etomidate”. Also, in the data set with dogs [6] (dogs, IV bolus), the “Bolus doses that induced LoRR in all dogs” value is listed as at least 1 mg/kg, the “Slope of duration of LoRR vs logarithm of dose” value is 9.9 and the “X-intercept of duration of LoRR vs logarithm of dose” value was determined as 0.88 mg/kg. The “LoRR at lower doses” value in the data set on dogs [6] (dogs, IV bolus 0.25 mg/kg or 0.5 mg/kg) was “failed to induce LoRR in any dog”. Besides, the “Time to induction of LoRR” value with dogs [6] (dogs, IV bolus at doses ≥1 mg/kg) is recorded as under 15 s. The “ED50 for loss of righting reflexes” value with dogs [6] (dogs, IV bolus, approximate value from Hill fit) was ~ 0.8 mg/kg. Also, in data set [1] (setting [18]), the “Decrease of plasma concentration from 30 to 60 min after the infusion ended” value stood at 22% and the “Half-life of decline beyond 30 min after infusion” value is on record as ~ 90 min. In the data set on dogs [7], the “γ (slope parameter)” value is recorded as 1.3 0.7 – 1.9 and the “EC anesthesia score 3” value was 2,798 1,840 – 4,256 ng/ml. Moreover, in the data set with rats [11], the “Hypnotic ED50” value is given as about 0.69 mg/kg and the “Slope of duration of hypnosis vs logarithm of dose” value was 6.9. Further, the “Plasma concentration in initial blood sample” value in data set [2] (30 s after IV bolus (CPMM 4 mg/kg, etomidate 2 mg/kg), n = 3 dogs) is 4,130 ± 640 ng/ml. Further, in data set [2] (setting [15]), the “Plasma concentration 10 min after administration” value worked out at 330 ± 41 ng/mL and the Co is 5,180 ± 1,120 ng/ml. Besides, in [2] (IV bolus, dogs), the “Decrease of plasma concentration from initial to final blood sample (2 h)” value was “decreased by four orders of magnitude” and the “Plasma concentration at 10 min as percentage of initial blood sample” value is reported as 8%. Moreover, the “Plasma concentration range during anesthetic recovery” value in data set [2] (dogs) is given as “approximately 500 ng/ml”. The “Normalized plasma concentration as percentage of that of etomidate” value in data set [2] (one hour after hypnotic bolus, dogs) turned out to be 7%. In [2] (setting [19]), the CL is 211 ± 26 mL/min/kg and the Vss is 1,880 ± 569 ml·kg^−1. In addition, in data set [2] (parent drug, IV bolus, n = 3 dogs, apparent terminal half-life), the t1/2 came to 16.1 ± 2.99 min. In addition, the exposure (AUC) in data set [2] (setting [16]) was 19,200 ± 2,590 min-ng ml^−1. In addition, in data set [2] (single bolus, dogs), the “Clearance relative to etomidate (fold higher)” value turned out to be 14 X, the “Terminal elimination half-life relative to etomidate” value is recorded as 27% and the “Vss relative to total body water volume in dogs (600 ml/kg)” value came to 3 X. For the same molecule, the “Normalized plasma concentration as percentage of that of etomidate” value in data set [2] (ten minutes after hypnotic bolus, dogs) is given as 33%.

By Cmax is commonly meant the peak of the concentration-time curve. A word on the AUC: it is concentration integrated over time.
